Assay results taken from patent publication US20150133492A1, “N-desmethyldauricine, A Novel Autophagic Enhancer for Treatment of Cancers and Neurodegenerative Conditions Thereof” (Macau University of Science and Technology, priority 2013, published 2015).

test system: HeLa cells expressing GFP-LC3; test: GFP-LC3 puncta in the presence of specific inhibitors; assay type: cell-based, human; conditions: LP-4 10 μM, 4 hours, CC 10 μM, STO-609 25 μM, BM 10 μM
Method: GFP-LC3 puncta formation was quantified as previously described^15. In brief, HeLa cells expressing GFP-LC3 were treated with N-desmethyldauricine (LP-4, 10 μM) in the presence of AMPK inhibitor, compound C (CC, 10 μM), CaMKK-β inhibitor, STO-609 (25 μM) or Calcium chelator, BAPTA/AM (BM, 10 μM) for 4 hours. The cells were then fixed in 4% paraformaldehyde for 20 minutes at room temperature and then rinsed with PBS. Slides were mounted with FluorSave™ mounting media (Calbiochem) and examined by fluorescence microscopy. To quantify for autophagy, the percentage of cells with punctate GFP-LC3 fluorescence was calculated by counting the number of the cells with punctate GFP-LC3 fluorescence in GFP-positive cells. A minimum of 150 cells from 3 randomly selected fields was scored.

| Structure (SMILES) | N-desmethyldauricine-induced GFP-LC3 puncta formation in presence of inhibitor |
| --- | --- |
| CC(=O)OCOC(=O)CN(CC(=O)OCOC(C)=O)c1ccccc1OCCOc1ccccc1N(CC(=O)OCOC(C)=O)CC(=O)OCOC(C)=O [BAPTA/AM] | significant reduction |
| O=C(O)c1ccc2c3c1cccc3c(=O)n1c3ccccc3nc21 [STO-609] | significant reduction |
| c1cc(-c2cnn3cc(-c4ccc(OCCN5CCCCC5)cc4)cnc23)ccn1 [compound C] | significant reduction |
